“And” between values parts separate entries of the source, which are not always exact repeats. Equal entries are not always repeated.
Columns and labels:
Experiment in all cases: LanthaScreen Eu Kinase Binding Assay, panel of 486 biochemical kinase assays
[1] = target: various kinases (Homo sapiens, UniProt O75716); conditions: kinase STK16 (PKL12); LanthaScreen Binding
[2] = target: T1, various kinases (Homo sapiens, UniProt O94768); conditions: kinase STK17B (DRAK2); LanthaScreen Binding
T1 sequence (O94768 1-372): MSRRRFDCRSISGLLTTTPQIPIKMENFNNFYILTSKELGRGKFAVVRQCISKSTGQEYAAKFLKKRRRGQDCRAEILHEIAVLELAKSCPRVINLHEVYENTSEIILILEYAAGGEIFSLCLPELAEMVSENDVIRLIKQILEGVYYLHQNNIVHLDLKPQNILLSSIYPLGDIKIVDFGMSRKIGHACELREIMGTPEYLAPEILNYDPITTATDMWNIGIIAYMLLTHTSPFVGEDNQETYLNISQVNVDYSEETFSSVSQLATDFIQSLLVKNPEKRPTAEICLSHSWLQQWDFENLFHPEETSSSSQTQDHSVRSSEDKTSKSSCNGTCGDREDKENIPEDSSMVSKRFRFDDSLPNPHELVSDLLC

[3] = target: various kinases (Homo sapiens, UniProt P04049, Y340D/Y341D); conditions: kinase RAF1 (cRAF) Y340D Y341D; LanthaScreen Binding
various kinases (Homo sapiens, UniProt P04049, Y340D/Y341D), sequence (P04049 whole entry Y340D/Y341D): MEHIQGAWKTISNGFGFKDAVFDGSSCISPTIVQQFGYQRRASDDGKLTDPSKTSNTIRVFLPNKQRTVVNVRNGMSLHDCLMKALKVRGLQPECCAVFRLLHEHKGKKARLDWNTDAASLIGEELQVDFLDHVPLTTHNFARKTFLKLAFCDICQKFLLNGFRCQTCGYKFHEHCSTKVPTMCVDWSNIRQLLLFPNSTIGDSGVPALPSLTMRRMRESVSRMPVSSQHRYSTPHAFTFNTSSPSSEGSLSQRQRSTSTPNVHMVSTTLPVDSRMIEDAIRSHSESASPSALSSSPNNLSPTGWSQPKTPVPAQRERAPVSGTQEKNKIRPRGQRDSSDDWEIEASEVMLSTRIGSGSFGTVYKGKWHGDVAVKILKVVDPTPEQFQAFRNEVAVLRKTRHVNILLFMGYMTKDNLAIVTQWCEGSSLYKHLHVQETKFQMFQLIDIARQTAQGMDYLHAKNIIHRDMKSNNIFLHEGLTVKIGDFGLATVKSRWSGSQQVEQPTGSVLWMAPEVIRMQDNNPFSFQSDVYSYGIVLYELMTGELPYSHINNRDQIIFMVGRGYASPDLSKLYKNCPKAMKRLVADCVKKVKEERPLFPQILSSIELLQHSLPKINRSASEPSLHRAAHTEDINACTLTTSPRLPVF

[4] = target: various kinases (Homo sapiens, UniProt P15056); conditions: BRAF
[5] = target: T2, various kinases (Homo sapiens, UniProt P33981); conditions: kinase TTK; LanthaScreen Binding
T2 sequence (P33981 1-857): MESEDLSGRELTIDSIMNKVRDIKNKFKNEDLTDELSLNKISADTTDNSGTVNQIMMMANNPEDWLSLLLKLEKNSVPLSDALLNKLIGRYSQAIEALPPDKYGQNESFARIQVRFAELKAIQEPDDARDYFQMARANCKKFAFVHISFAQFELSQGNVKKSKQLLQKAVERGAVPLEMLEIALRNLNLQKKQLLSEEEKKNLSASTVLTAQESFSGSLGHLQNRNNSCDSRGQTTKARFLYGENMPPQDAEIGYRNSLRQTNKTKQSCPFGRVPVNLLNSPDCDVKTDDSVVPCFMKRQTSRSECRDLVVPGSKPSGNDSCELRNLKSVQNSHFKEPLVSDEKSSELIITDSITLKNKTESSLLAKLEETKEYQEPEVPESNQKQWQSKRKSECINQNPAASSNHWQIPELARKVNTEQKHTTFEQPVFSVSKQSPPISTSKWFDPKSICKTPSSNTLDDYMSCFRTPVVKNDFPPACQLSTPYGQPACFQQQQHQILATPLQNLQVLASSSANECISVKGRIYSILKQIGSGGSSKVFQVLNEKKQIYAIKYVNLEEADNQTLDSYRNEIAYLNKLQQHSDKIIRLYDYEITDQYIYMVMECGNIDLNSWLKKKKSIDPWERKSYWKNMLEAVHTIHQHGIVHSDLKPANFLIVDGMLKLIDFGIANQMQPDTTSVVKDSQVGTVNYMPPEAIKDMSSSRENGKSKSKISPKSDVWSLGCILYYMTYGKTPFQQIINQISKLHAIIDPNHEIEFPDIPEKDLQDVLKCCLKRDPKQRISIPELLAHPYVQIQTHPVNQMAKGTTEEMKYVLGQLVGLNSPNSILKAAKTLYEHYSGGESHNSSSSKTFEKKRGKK

[6] = target: various kinases (Homo sapiens, UniProt P50750)
[7] = target: various kinases (Homo sapiens, UniProt P53667); conditions: LIMK1
[8] = target: T3, various kinases (Homo sapiens, UniProt Q6PHR2); conditions: kinase ULK3; LanthaScreen Binding
T3 sequence (Q6PHR2 1-472): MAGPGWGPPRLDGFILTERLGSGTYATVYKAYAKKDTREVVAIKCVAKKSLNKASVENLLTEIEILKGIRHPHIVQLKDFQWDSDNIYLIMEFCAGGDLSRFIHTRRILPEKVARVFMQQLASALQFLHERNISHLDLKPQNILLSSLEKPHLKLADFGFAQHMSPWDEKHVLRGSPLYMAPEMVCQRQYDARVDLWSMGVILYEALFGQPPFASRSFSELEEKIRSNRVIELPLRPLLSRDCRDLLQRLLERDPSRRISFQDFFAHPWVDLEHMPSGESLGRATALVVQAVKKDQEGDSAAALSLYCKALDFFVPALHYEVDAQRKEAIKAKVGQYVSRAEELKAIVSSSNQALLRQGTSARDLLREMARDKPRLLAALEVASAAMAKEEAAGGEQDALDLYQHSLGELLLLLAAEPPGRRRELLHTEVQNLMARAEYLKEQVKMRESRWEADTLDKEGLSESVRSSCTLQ

[9] = target: various kinases (Homo sapiens, UniProt Q86YV6); conditions: MYLK4
[10] = target: various kinases (Homo sapiens, UniProt Q9BYP7); conditions: kinase WNK3; LanthaScreen Binding
various kinases (Homo sapiens, UniProt Q9BYP7), sequence (Q9BYP7 whole entry): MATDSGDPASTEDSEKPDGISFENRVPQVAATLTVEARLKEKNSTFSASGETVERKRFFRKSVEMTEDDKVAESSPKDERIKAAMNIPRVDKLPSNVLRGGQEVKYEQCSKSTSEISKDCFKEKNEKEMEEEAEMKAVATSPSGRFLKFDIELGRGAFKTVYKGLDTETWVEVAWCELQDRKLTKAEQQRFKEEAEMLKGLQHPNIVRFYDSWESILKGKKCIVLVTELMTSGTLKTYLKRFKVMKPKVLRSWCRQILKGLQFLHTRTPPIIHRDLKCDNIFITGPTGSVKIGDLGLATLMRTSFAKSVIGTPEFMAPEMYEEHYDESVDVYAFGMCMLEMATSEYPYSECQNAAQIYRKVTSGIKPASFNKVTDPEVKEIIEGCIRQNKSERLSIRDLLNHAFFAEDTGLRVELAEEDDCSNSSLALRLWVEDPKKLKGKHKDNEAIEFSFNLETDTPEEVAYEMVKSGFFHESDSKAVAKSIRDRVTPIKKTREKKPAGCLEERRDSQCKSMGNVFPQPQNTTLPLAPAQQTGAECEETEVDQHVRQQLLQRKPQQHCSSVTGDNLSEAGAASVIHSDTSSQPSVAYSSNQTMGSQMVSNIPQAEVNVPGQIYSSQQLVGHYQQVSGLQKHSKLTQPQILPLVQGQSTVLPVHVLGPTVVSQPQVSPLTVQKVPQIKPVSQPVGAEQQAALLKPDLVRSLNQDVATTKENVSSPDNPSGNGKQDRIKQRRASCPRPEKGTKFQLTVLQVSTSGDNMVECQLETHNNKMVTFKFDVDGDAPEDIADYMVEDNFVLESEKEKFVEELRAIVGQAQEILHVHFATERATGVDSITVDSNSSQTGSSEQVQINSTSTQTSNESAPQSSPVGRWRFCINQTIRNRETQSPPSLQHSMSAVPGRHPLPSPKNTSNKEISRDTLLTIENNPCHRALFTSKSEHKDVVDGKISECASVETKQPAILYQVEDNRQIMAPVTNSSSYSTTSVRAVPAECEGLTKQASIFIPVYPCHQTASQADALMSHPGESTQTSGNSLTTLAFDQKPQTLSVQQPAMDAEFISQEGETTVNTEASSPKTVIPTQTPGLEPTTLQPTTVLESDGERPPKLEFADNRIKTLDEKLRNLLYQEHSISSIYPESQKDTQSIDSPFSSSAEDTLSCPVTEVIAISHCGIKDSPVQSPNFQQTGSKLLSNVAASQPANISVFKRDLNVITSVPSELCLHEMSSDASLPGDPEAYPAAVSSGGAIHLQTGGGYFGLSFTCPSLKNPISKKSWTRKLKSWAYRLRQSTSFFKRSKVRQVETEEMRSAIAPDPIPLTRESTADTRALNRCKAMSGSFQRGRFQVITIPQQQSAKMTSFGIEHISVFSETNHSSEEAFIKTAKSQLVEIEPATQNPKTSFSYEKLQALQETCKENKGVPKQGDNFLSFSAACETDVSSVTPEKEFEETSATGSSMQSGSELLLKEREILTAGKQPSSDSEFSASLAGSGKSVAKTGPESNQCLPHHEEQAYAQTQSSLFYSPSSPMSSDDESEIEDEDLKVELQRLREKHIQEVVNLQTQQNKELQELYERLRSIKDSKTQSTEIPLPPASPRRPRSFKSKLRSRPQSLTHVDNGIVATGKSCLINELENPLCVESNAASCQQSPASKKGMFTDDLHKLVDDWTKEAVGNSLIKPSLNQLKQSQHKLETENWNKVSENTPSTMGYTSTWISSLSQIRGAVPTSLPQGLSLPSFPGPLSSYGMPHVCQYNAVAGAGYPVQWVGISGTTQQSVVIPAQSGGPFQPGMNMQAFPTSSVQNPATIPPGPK

[11] = target: various kinases (Homo sapiens, UniProt Q9H2G2); conditions: kinase SLK; LanthaScreen Binding
various kinases (Homo sapiens, UniProt Q9H2G2), sequence (Q9H2G2 whole entry): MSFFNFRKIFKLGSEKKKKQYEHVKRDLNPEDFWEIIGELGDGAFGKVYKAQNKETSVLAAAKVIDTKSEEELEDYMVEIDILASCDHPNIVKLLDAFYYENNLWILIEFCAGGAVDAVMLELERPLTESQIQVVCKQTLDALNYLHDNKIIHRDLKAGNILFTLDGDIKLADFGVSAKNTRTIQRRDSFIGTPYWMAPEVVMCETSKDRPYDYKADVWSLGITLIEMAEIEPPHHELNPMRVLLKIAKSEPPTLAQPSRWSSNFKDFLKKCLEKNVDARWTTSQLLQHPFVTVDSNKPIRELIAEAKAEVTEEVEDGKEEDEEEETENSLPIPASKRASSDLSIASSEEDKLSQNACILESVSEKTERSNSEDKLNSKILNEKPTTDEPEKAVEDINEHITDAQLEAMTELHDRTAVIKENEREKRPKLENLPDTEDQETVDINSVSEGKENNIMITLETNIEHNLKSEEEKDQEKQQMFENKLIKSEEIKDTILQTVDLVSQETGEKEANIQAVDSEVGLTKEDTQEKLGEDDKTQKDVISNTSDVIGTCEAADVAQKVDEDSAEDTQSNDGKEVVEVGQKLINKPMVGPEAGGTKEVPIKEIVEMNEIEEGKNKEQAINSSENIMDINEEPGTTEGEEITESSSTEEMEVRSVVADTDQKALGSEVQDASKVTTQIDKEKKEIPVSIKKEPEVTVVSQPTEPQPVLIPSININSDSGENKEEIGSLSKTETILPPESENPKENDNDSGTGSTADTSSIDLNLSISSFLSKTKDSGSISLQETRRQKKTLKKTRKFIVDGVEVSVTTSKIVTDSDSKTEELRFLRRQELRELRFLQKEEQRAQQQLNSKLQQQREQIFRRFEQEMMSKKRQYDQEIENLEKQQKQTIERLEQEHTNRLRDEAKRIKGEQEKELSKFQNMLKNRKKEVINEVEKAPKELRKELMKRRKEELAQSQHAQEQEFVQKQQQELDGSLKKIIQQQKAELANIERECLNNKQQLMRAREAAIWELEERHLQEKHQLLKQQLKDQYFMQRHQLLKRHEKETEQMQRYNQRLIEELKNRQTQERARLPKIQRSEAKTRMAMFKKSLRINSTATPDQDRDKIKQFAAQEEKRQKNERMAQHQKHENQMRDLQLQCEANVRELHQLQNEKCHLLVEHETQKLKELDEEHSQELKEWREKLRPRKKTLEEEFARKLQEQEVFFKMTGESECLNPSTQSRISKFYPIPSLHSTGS

[12] = target: various kinases (Homo sapiens, UniProt Q9UF33); conditions: EPHA6
[13] = target: various kinases (Homo sapiens, UniProt Q9UM73, C1156Y); conditions: ALK C1156Y
[14] = target: various kinases (Homo sapiens, UniProt Q9UM73, L1196M); conditions: ALK L1196M
[15] = target: various kinases (Homo sapiens, UniProt Q9Y2K2); conditions: kinase SIK3; LanthaScreen Binding
various kinases (Homo sapiens, UniProt Q9Y2K2), sequence (Q9Y2K2 whole entry): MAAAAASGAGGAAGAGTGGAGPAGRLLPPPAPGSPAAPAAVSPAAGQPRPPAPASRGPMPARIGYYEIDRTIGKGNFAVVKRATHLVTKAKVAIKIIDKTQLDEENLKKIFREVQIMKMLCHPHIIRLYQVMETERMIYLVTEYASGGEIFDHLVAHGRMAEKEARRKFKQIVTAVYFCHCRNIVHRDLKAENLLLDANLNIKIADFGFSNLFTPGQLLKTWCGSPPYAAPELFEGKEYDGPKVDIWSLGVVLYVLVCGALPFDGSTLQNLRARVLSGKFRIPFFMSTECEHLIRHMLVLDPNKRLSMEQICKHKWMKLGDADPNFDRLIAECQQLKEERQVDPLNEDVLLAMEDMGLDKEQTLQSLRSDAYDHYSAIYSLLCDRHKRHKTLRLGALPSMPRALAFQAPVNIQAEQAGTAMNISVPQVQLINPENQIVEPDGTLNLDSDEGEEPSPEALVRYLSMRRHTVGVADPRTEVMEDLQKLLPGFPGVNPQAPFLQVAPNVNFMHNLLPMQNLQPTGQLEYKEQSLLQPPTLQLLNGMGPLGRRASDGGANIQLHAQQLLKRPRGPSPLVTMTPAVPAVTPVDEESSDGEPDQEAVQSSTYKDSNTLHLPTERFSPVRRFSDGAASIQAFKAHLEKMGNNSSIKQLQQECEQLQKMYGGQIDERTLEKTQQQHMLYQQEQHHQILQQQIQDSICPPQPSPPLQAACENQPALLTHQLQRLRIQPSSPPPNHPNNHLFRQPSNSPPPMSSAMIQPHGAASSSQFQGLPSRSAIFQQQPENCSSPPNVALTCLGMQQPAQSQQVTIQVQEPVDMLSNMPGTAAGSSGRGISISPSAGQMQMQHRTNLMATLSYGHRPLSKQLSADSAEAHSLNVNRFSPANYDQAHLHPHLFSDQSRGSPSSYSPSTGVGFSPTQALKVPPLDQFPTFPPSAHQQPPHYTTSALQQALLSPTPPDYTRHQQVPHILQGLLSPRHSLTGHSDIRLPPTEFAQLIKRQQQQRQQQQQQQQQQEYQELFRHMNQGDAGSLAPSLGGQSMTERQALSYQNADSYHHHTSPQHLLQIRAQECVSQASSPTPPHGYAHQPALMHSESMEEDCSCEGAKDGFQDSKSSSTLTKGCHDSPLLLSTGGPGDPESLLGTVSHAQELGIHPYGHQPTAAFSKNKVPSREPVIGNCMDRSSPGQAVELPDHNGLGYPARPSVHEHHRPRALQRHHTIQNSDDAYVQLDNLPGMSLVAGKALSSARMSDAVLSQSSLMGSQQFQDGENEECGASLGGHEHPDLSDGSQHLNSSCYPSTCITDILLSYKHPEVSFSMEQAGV

[16] = test system: various kinases

COc1ccc2c(c1)[C@]1(C[C@H]1c1ccc3c(/C=C/c4ccc(CN5C[C@@H](C)O[C@@H](C)C5)cc4)n[nH]c3c1)C(=O)N2 [CFI-400945]
% Inhibition Average [1]: 1%
% Inhibition Duplicate #1 [1]: -1%
% Inhibition Duplicate #2 [1]: 4%
% Inhibition Average [2]: 18%
% Inhibition Duplicate #1 [2]: 21%
% Inhibition Duplicate #2 [2]: 16%
% Inhibition Average [3]: -3%
% Inhibition Duplicate #1 [3]: -6%
% Inhibition Duplicate #2 [3]: -1%
% Inhibition [4]: 0% and 6%
% Inhibition Average [5]: 6%
% Inhibition Duplicate #1 [5]: 4%
% Inhibition Duplicate #2 [5]: 7%
% Inhibition ([6]; CDK9 (Inactive)): 13% and 12%
% Inhibition ([6]; CDK9/cyclin K): -3% and -6%
% Inhibition [7]: 11% and 15%
% Inhibition Average [8]: 0%
% Inhibition Duplicate #1 [8]: -4%
% Inhibition Duplicate #2 [8]: 3%
% Inhibition [9]: 7% and 13%
% Inhibition Average [10]: -2%
% Inhibition Duplicate #1 [10]: -2%
% Inhibition Duplicate #2 [10]: -1%
% Inhibition Average [11]: 5%
% Inhibition Duplicate #1 [11]: 4%
% Inhibition Duplicate #2 [11]: 6%
% Inhibition [12]: 18% and 24%
% Inhibition [13]: 47% and 51%
% Inhibition [14]: 14% and 25%
% Inhibition Average [15]: 5%
% Inhibition Duplicate #1 [15]: 10%
% Inhibition Duplicate #2 [15]: 1%
% Inhibition ([16]; ALK T1151_L1152insT): 31% and 35%
% Inhibition ([16]; EGFR (ErbB1) d747-749 A750P): 12% and 23%
% Inhibition ([16]; FLT3 ITD): 45% and 41%
% Inhibition ([16]; MAP3K7/MAP3K7IP1 (TAK1-TAB1)): 8%
